Measurements: patent US11337976B2 (Plexxikon Inc., priority 2011, dated 2022)

Tested on: A375 melanoma cells (B-Raf V600E mutation)
Assay: A375 (A375_P-ERK) cell activity / cell growth inhibition assay
Type: cell-based, human
Details: Homo sapiens, A-375; A375 cells (text: A375_P-ERK)

SMILES	IC50
Nc1ncc(-c2cnc3[nH]cc(C(=O)c4c(F)ccc(NS(=O)(=O)N5CCCC5)c4F)c3c2)cn1 [P-0279, N-[3-[5-(2-aminopyrimidin-5-yl)-1H-pyrrolo[2,3-b]pyridine-3-carbonyl]-2,4-difluoro-phenyl]pyrrolidine-1-sulfonamide]	> 1 µM
CCN(C)S(=O)(=O)Nc1ccc(F)c(C(=O)c2c[nH]c3ncc(-c4ccnc(F)c4)cc23)c1F [P-0283, 3-[3-[[ethyl(methyl)sulfamoyl]amino]-2,6-difluoro-benzoyl]-5-(2-fluoro-4-pyridyl)-1H-pyrrolo[2,3-b]pyridine]	> 1 µM
O=C(c1c(F)ccc(NS(=O)(=O)N2CC[C@H](F)C2)c1F)c1c[nH]c2ncc(-c3cnc(C4CC4)nc3)cc12 [P-0289, (3S)—N-[3-[5-(2-cyclopropylpyrimidin-5-yl)-1H-pyrrolo[2,3-b]pyridine-3-carbonyl]-2,4-difluoro-phenyl]-3-fluoro-pyrrolidine-1-sulfonamide]	< 1 µM
CCN(C)S(=O)(=O)Nc1ccc(F)c(C(=O)c2c[nH]c3ncc(-c4cnc(N(C)C)nc4)cc23)c1F [P-0292, 5-[2-(dimethylamino)pyrimidin-5-yl]-3-[3-[[ethyl(methyl)sulfamoyl]amino]-2,6-difluoro-benzoyl]-1H-pyrrolo[2,3-b]pyridine]	< 1 µM
CCN(C)S(=O)(=O)Nc1ccc(F)c(C(=O)c2c[nH]c3ncc(-c4cnc(N5CCCC5)nc4)cc23)c1F [P-0293, 3-[3-[[ethyl(methyl)sulfamoyl]amino]-2,6-difluoro-benzoyl]-5-(2-pyrrolidin-1-ylpyrimidin-5-yl)-1H-pyrrolo[2,3-b]pyridine]	< 1 µM
O=C(c1c(F)ccc(NS(=O)(=O)N2CCCC2)c1F)c1c[nH]c2ncc(-c3ccnc(C4CC4)c3)cc12 [P-0295, N-[3-[5-(2-cyclopropyl-4-pyridyl)-1H-pyrrolo[2,3-b]pyridine-3-carbonyl]-2,4-difluoro-phenyl]pyrrolidine-1-sulfonamide]	< 1 µM
CCN(C)S(=O)(=O)Nc1cccc(C(=O)c2c[nH]c3ncc(C4CCC4)cc23)c1F [P-0297, 5-cyclobutyl-3-[3-[[ethyl(methyl)sulfamoyl]amino]-2-fluoro-benzoyl]-1H-pyrrolo[2,3-b]pyridine]	> 1 µM
CCN(C)S(=O)(=O)Nc1cccc(C(=O)c2c[nH]c3ncc(C4CC4)cc23)c1F [P-0298, 5-cyclopropyl-3-[3-[[ethyl(methyl)sulfamoyl]amino]-2-fluoro-benzoyl]-1H-pyrrolo[2,3-b]pyridine]	> 1 µM
Nc1cc(-c2cnc3[nH]cc(C(=O)c4cccc(NS(=O)(=O)N5CCCC5)c4F)c3c2)ncn1 [P-0299, N-[3-[5-(6-aminopyrimidin-4-yl)-1H-pyrrolo[2,3-b]pyridine-3-carbonyl]-2-fluoro-phenyl]pyrrolidine-1-sulfonamide]	> 1 µM
CCN(C)S(=O)(=O)Nc1ccc(F)c(C(=O)c2c[nH]c3ncc(-c4ccc(C(F)(F)F)cc4)cc23)c1F [P-0301, 3-[3-[[ethyl(methyl)sulfamoyl]amino]-2,6-difluoro-benzoyl]-5-[4-(trifluoromethyl)phenyl]-1H-pyrrolo[2,3-b]pyridine]	< 1 µM
CCN(C)S(=O)(=O)Nc1ccc(F)c(C(=O)c2c[nH]c3ncc(-c4ccc(N5CCCC5)cc4)cc23)c1F [P-0303, 3-[3-[[ethyl(methyl)sulfamoyl]amino]-2,6-difluoro-benzoyl]-5-(4-pyrrolidin-1-ylphenyl)-1H-pyrrolo[2,3-b]pyridine]	> 1 µM
CCN(C)S(=O)(=O)Nc1ccc(F)c(C(=O)c2c[nH]c3ncc(-c4ccc(-c5nnc(C)o5)cc4)cc23)c1F [P-0304, 2-[4-[3-[3-[[ethyl(methyl)sulfamoyl]amino]-2,6-difluoro-benzoyl]-1H-pyrrolo[2,3-b]pyridin-5-yl]phenyl]-5-methyl-1,3,4-oxadiazole]	< 1 µM
CCN(C)S(=O)(=O)Nc1ccc(F)c(C(=O)c2c[nH]c3ncc(-c4ccc(-c5nnc(NC)s5)cc4)cc23)c1F [P-0305, 2-[4-[3-[3-[[ethyl(methyl)sulfamoyl]amino]-2,6-difluoro-benzoyl]-1H-pyrrolo[2,3-b]pyridin-5-yl]phenyl]-5-(methylamino)-1,3,4-thiadiazole]	< 1 µM
CCN(C)S(=O)(=O)Nc1ccc(F)c(C(=O)c2c[nH]c3ncc(-c4cncc(C(C)(C)O)c4)cc23)c1F [P-0306, 3-[3-[[ethyl(methyl)sulfamoyl]amino]-2,6-difluoro-benzoyl]-5-[5-(1-hydroxy-1-methyl-ethyl)-3-pyridyl]-1H-pyrrolo[2,3-b]pyridine]	> 1 µM
CCN(C)S(=O)(=O)Nc1ccc(F)c(C(=O)c2c[nH]c3ncc(-c4ccc(C(C)(C)O)nc4)cc23)c1F [P-0307, 3-[3-[[ethyl(methyl)sulfamoyl]amino]-2,6-difluoro-benzoyl]-5-[6-(1-hydroxy-1-methyl-ethyl)-3-pyridyl]-1H-pyrrolo[2,3-b]pyridine]	< 1 µM
CCN(CC)c1ccc(-c2cnc3[nH]cc(C(=O)c4c(F)ccc(NS(=O)(=O)N(C)CC)c4F)c3c2)cc1 [P-0308, 5-[4-(diethylamino)phenyl]-3-[3-[[ethyl(methyl)sulfamoyl]amino]-2,6-difluoro-benzoyl]-1H-pyrrolo[2,3-b]pyridine]	< 1 µM
CCN(C)S(=O)(=O)Nc1ccc(F)c(C(=O)c2c[nH]c3ncc(-c4ccc5c(c4)NC(=O)C5)cc23)c1F [P-0309, 3-[3-[[ethyl(methyl)sulfamoyl]amino]-2,6-difluoro-benzoyl]-5-(2-oxoindolin-6-yl)-1H-pyrrolo[2,3-b]pyridine]	< 1 µM
CCN(C)S(=O)(=O)Nc1ccc(F)c(C(=O)c2c[nH]c3ncc(-c4ccc(-c5noc(C)n5)s4)cc23)c1F [P-0310, 3-[5-[3-[3-[[ethyl(methyl)sulfamoyl]amino]-2,6-difluoro-benzoyl]-1H-pyrrolo[2,3-b]pyridin-5-yl]-2-thienyl]-5-methyl-1,2,4-oxadiazole]	< 1 µM
CCN(C)S(=O)(=O)Nc1ccc(F)c(C(=O)c2c[nH]c3ncc(-c4ccc5nc(N)ncc5c4)cc23)c1F [P-0311, 2-amino-6-[3-[3-[[ethyl(methyl)sulfamoyl]amino]-2,6-difluoro-benzoyl]-1H-pyrrolo[2,3-b]pyridin-5-yl]quinazoline]	< 1 µM
CCN(C)S(=O)(=O)Nc1ccc(F)c(C(=O)c2c[nH]c3ncc(-c4ccc5nc(N(C)C)ncc5c4)cc23)c1F [P-0313, 2-(dimethylamino)-6-[3-[3-[[ethyl(methyl)sulfamoyl]amino]-2,6-difluoro-benzoyl]-1H-pyrrolo[2,3-b]pyridin-5-yl]quinazoline]	< 1 µM
CCN(C)S(=O)(=O)Nc1ccc(F)c(C(=O)c2c[nH]c3ncc(-c4ccc(C5(O)CC5)cc4)cc23)c1F [P-0314, 3-[3-[[ethyl(methyl)sulfamoyl]amino]-2,6-difluoro-benzoyl]-5-[4-(1-hydroxycyclopropyl)phenyl]-1H-pyrrolo[2,3-b]pyridine]	< 1 µM

Further lines, results first:

IC50	SMILES
< 1 µM	O=C(c1c(F)ccc(NS(=O)(=O)N2CCCC2)c1F)c1c[nH]c2ncc(-c3ccncc3)cc12 [P-0273, N-[2,4-difluoro-3-[5-(4-pyridyl)-1H-pyrrolo[2,3-b]pyridine-3-carbonyl]phenyl]pyrrolidine-1-sulfonamide]
< 1 µM	O=C(c1cccc(NS(=O)(=O)N2CCCC2)c1F)c1c[nH]c2ncc(C3CC3)cc12 [P-0274, N-[3-(5-cyclopropyl-1H-pyrrolo[2,3-b]pyridine-3-carbonyl)-2-fluoro-phenyl]pyrrolidine-1-sulfonamide]
< 1 µM	CCN(C)S(=O)(=O)Nc1ccc(F)c(C(=O)c2c[nH]c3ncc(-c4cnc(N5CCC(O)CC5)nc4)cc23)c1F [P-0275]
< 1 µM	CCN(C)S(=O)(=O)Nc1ccc(F)c(C(=O)c2c[nH]c3ncc(-c4cccc(C5(C#N)CC5)c4)cc23)c1F [P-0276, 5-[3-(1-cyanocyclopropyl)phenyl]-3-[3-[[ethyl(methyl)sulfamoyl]amino]-2,6-difluoro-benzoyl]-1H-pyrrolo[2,3-b]pyridine]
< 1 µM	CCN(C)S(=O)(=O)Nc1ccc(F)c(C(=O)c2c[nH]c3ncc(-c4cnc(N5CCC5)nc4)cc23)c1F [P-0277, 5-[2-(azetidin-1-yl)pyrimidin-5-yl]-3-[3-[[ethyl(methyl)sulfamoyl]amino]-2,6-difluoro-benzoyl]-1H-pyrrolo[2,3-b]pyridine]
< 1 µM	Nc1nccc(-c2cnc3[nH]cc(C(=O)c4c(F)ccc(NS(=O)(=O)N5CCCC5)c4F)c3c2)n1 [P-0280, N-[3-[5-(2-aminopyrimidin-4-yl)-1H-pyrrolo[2,3-b]pyridine-3-carbonyl]-2,4-difluoro-phenyl]pyrrolidine-1-sulfonamide]
< 1 µM	O=C(c1cccc(NS(=O)(=O)N2CCCC2)c1F)c1c[nH]c2ncc(-c3ccncc3)cc12 [P-0281, N-[2-fluoro-3-[5-(4-pyridyl)-1H-pyrrolo[2,3-b]pyridine-3-carbonyl]phenyl]pyrrolidine-1-sulfonamide]
< 1 µM	O=C(c1c(F)ccc(NS(=O)(=O)N2CCCC2)c1F)c1c[nH]c2ncc(-c3ccnc(N4CCOCC4)n3)cc12 [P-0282, N-[2,4-difluoro-3-[5-(2-morpholinopyrimidin-4-yl)-1H-pyrrolo[2,3-b]pyridine-3-carbonyl]phenyl]pyrrolidine-1-sulfonamide]
< 1 µM	O=C(c1c(F)ccc(NS(=O)(=O)N2CCCC2)c1F)c1c[nH]c2ncc(-c3ccnc(N4CCOCC4)c3)cc12 [P-0284, N-[2,4-difluoro-3-[5-(2-morpholino-4-pyridyl)-1H-pyrrolo[2,3-b]pyridine-3-carbonyl]phenyl]pyrrolidine-1-sulfonamide]
< 1 µM	CN1CCN(c2cc(-c3cnc4[nH]cc(C(=O)c5c(F)ccc(NS(=O)(=O)N6CCCC6)c5F)c4c3)ccn2)CC1 [P-0285, N-[2,4-difluoro-3-[5-[2-(4-methylpiperazin-1-yl)-4-pyridyl]-1H-pyrrolo[2,3-b]pyridine-3-carbonyl]phenyl]pyrrolidine-1-sulfonamide]
< 1 µM	COc1cc(-c2cnc3[nH]cc(C(=O)c4c(F)ccc(NS(=O)(=O)N5CCCC5)c4F)c3c2)ccn1 [P-0287, N-[2,4-difluoro-3-[5-(2-methoxy-4-pyridyl)-1H-pyrrolo[2,3-b]pyridine-3-carbonyl]phenyl]pyrrolidine-1-sulfonamide]
